Data published in patent US12221448B2, “Selective PI3Kδ inhibitor and use thereof” (TARAPEUTICS SCIENCE INC., priority 2018, dated 2025).

Key:
PI3Kδ = target: T1, PI3Kδ (Homo sapiens, UniProt O00329); test: In vitro enzyme activity (ADP-Glo) against PI3Kδ; assay type: biochemical; settings: Table 2; ATP 50 μM, PIP2:PS 50 μM
T1 construct: purchased Invitrogen (US)
Protocol: (§1) In vitro enzyme activity experiments were performed to determine the IC50 values of the compounds against PI3K family type I kinases (PI3Kα, PI3Kβ, PI3Kγ, PI3Kδ) and type II kinases (PIK3C2A, PIK3C2B). Protein kinases PI3Kα, PI3Kγ, PI3Kδ, PIK3C2A, and PIK3C2B were all purchased from Invitrogen (US); protein kinase PI3Kβ was purchased from sigma (US); the three substrates PIP2: PS, PI and PI: PS were purchased from Invitrogen (US).
(§2) Protein kinases diluted to a certain concentration, i.e., PI3Kα 5.4 μL (with a final concentration of 0.16 ng/μL), PI3Kβ 5.4 μL (with a final concentration of 6 ng/μL), PI3Kδ 5.4 μL (with a final concentration of 1 ng/μL), PI3Kγ 5.4 μL (with a final concentration of 5 ng/μL), PIK3C2A 5.4 μL (with a final concentration of 5 ng/μL), and PIK3C2B 5.4 μL (with a final concentration of 10 ng/μL) were respectively reacted with 1 μL of the serially diluted drug compounds for 1 hour at room temperature (final drug concentrations were 10 μM, 1 μM, 0.3 μM, 0.1 μM, 0.03 μM, 0.01 μM, 0.003 μM, and 0.001 μM, respectively).
(§3) To each reaction tube of the above PI3K family type I kinases, 6 μL of a mixture of ATP (Promega, US) and substrate PIP2:PS (final concentrations of ATP in the reaction systems of kinases PI3Kα, and PI3Kβ were 10 μM, and final concentrations of ATP in the reaction systems of kinases PI3Kδ, and PI3Kγ were 50 μM, and final concentrations of the substrate PIP2:PS were all 50 μM) was added, and reacted at 37° C. for 1 hour. The reaction buffer was 50 mM Hepes (pH 7.5) (Promega, USA), 3 mM MgCl2, 1 mM EGTA (Promega, US), 100 mM NaCl, 0.03% CHAPS (Promega, US).
(§4) 5 μL of kinase solution after reaction was placed in a 384-well plate (Corning, US), and 5 μL of ADP-Glo™ reagent (Promega, US) was added thereto and reacted at room temperature for 40 minutes to stop the kinase reaction and exhaust the remaining ATP; 10 μL of kinase detection reagent was added to convert ADP into ATP, and coupled luciferase/luciferin reaction was utilized to detect the newly synthesized ATP. Envision was utilized for readout and plotting, and Graphpad IC50 value was calculated.

PI3Kγ = target: T2, PI3Kγ (Homo sapiens, UniProt P48736); test: In vitro enzyme activity (ADP-Glo) against PI3Kγ; assay type: biochemical; settings: Table 2; ATP 50 μM, PIP2:PS 50 μM; read-out: IC50 against PI3Kγ
T2 construct: purchased Invitrogen (US)
T2 sequence (P48736 whole entry): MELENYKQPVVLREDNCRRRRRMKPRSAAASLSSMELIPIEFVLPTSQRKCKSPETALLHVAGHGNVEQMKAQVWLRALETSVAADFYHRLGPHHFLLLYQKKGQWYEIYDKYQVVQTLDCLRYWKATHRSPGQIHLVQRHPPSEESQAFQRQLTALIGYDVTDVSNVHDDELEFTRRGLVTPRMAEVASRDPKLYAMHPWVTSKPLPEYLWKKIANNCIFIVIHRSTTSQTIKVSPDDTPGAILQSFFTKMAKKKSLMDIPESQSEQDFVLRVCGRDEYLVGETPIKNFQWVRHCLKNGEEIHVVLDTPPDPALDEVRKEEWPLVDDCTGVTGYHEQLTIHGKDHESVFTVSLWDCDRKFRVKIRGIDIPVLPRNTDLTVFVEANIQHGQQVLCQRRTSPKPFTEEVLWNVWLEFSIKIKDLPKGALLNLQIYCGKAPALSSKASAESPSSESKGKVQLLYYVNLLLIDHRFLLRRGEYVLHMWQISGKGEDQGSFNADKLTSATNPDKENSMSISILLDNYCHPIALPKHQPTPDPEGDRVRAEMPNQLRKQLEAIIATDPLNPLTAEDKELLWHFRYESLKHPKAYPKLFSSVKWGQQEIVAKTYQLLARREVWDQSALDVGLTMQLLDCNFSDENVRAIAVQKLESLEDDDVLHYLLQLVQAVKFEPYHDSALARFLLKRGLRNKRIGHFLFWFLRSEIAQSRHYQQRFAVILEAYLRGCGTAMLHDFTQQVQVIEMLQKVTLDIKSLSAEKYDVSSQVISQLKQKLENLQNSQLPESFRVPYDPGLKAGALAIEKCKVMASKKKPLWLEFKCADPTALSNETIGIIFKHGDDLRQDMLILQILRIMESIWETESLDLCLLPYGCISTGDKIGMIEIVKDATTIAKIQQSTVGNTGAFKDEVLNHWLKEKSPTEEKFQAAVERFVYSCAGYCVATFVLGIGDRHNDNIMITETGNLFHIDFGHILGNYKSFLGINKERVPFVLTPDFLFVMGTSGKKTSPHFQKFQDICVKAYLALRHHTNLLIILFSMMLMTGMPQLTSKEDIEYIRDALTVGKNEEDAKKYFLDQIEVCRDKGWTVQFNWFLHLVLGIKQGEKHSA
Protocol: as §1, §2, §3, §4

PI3Kα = target: T3, PI3Kα (Homo sapiens, UniProt P42336); test: In vitro enzyme activity (ADP-Glo) against PI3Kα; assay type: biochemical; settings: Table 2; ATP 10 μM, PIP2:PS 50 μM
T3 construct: purchased Invitrogen (US)
T3 sequence (P42336 whole entry): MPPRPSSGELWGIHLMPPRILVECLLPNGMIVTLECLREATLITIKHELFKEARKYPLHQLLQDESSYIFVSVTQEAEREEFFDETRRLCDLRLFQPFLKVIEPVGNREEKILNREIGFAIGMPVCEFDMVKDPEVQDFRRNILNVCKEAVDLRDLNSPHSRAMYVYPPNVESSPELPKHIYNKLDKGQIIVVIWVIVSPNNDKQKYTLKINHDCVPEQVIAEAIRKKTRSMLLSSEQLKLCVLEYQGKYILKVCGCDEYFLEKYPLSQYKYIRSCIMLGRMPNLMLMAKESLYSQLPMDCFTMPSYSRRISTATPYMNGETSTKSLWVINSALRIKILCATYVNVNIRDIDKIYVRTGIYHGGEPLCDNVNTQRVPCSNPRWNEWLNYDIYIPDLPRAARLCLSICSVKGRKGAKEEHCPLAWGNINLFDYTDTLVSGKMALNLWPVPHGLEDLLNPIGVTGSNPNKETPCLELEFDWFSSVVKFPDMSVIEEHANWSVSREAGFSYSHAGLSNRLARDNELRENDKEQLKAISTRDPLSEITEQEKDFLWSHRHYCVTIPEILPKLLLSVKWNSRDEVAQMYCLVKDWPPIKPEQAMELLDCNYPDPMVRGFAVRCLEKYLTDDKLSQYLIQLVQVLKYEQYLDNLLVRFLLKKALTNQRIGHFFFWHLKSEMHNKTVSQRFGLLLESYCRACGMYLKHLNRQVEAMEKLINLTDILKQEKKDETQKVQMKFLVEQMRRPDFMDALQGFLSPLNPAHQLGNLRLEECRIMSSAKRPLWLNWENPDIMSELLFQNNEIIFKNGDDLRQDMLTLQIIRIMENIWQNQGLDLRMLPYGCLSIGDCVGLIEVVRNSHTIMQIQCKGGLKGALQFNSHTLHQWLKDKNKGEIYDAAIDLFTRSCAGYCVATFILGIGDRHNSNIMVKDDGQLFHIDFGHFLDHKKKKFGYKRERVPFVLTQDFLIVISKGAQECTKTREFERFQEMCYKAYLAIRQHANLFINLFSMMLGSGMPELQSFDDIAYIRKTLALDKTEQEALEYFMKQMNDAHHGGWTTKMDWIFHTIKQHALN
T3 sequence (P27986 whole entry partner): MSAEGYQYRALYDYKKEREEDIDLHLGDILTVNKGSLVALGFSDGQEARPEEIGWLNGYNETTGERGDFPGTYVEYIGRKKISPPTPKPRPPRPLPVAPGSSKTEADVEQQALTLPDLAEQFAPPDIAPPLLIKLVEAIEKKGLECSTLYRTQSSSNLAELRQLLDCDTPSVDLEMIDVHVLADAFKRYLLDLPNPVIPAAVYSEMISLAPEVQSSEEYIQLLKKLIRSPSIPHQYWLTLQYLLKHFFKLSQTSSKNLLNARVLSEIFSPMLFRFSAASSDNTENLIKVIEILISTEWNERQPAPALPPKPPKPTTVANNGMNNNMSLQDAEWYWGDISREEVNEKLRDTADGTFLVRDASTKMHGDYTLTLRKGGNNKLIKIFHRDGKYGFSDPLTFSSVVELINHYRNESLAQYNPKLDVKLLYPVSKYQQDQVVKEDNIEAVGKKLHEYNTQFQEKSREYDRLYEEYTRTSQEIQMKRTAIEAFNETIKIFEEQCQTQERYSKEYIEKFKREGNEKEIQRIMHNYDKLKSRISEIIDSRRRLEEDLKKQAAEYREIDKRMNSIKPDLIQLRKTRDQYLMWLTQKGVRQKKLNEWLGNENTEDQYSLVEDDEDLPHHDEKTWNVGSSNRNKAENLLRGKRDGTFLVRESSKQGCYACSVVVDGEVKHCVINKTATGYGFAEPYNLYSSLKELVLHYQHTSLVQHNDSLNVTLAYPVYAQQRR
Protocol: as §1, §2, §3, §4

PIK3C2A = target: T4, PIK3C2A (Homo sapiens, UniProt O00443); test: In vitro enzyme activity (ADP-Glo) against PIK3C2A; assay type: biochemical; settings: Table 3; ATP 50 μM, substrate PI 100 μM; read-out: IC50 PI3KC2A
T4 construct: purchased Invitrogen (US)
Protocol: as §1, with “(US). […]” for “(US).”
as §4

PI3Kβ = target: T5, PI3Kβ (Homo sapiens, UniProt P42338); test: In vitro enzyme activity (ADP-Glo) against PI3Kβ; assay type: biochemical; settings: Table 2; ATP 10 μM, PIP2:PS 50 μM; read-out: IC50 against PI3Kβ
T5 construct: purchased sigma (US)
T5 sequence (P42338 whole entry): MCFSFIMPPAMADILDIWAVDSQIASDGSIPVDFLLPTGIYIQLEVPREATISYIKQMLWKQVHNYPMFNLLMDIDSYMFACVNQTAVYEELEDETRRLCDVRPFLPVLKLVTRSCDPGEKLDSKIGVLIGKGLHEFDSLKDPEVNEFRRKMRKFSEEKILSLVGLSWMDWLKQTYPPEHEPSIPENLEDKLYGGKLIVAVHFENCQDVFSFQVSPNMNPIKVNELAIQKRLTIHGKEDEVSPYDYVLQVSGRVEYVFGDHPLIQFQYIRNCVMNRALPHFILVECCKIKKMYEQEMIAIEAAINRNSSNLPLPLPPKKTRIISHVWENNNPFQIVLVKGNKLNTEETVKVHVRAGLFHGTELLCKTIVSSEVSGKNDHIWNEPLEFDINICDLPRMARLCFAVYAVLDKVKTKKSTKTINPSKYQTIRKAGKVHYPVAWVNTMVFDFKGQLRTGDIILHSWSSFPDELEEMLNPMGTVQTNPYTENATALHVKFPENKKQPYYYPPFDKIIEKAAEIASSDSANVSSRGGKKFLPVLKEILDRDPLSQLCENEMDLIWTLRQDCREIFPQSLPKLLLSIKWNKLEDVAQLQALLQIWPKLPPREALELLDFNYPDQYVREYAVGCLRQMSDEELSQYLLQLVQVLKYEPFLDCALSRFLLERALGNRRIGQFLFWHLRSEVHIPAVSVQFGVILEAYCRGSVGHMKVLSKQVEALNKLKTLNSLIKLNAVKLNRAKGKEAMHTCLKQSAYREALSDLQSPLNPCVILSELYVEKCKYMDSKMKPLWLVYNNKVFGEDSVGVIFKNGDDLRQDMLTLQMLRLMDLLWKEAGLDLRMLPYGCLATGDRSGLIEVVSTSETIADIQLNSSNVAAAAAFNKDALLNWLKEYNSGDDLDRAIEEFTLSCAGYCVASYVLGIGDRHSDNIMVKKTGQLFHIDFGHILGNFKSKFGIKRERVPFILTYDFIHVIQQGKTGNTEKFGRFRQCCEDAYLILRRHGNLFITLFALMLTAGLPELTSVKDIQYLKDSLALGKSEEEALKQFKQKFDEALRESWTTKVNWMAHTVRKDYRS
T5 sequence (P27986 whole entry partner): as the sequence (P27986 whole entry partner) above
Protocol: as §1, §2, §3, §4

[1] = test system: rat model of adjuvant arthritis; test: Efficacy in rat model of rheumatoid arthritis (adjuvant arthritis); assay type: in vivo, Sprague-Dawley (SD) rats; settings: 25 mg/kg/day, oral gavage, once a day
Protocol: In this example, the experimental results of Compound 9 were tested in a rat model of adjuvant arthritis.
(1) Sprague-Dawley (SD) rats, female, weighing 180 g±20 g, were purchased from Beijing Vital River Laboratory Animal Technology Co., Ltd. and maintained in an SPL laboratory. Drinking water and litter were sterilized by autoclaving, and all operations related to the rats were performed under sterile conditions.
(2) In the vehicle group and the treatment group, 10.0 mg/ml CFA (complete Freund's adjuvant, purchased from Sigma, US) was mixed thoroughly, and 0.1 ml of the CFA was injected intracutaneously into the right rear vola pedis of each rat on day 0 to induce inflammation; the normal group was injected with saline in the same way.
(3) Body weight and paw swelling were measured every 3 or 4 days after modeling. […]
(4) The body weight and paw swelling were measured every two days after administration, and the paw swelling was measured with a paw swelling meter. […] After the inflammation, the volume of left rear foot was measured to obtain the swelling degree of the secondary paw (Δm1=|paw volume after injection−paw volume before injection|).

PIK3C2B = target: T6, PIK3C2B (Homo sapiens, UniProt O00750); test: In vitro enzyme activity (ADP-Glo) against PIK3C2B; assay type: biochemical; settings: Table 3; ATP 50 μM, substrate PI 100 μM; read-out: IC50 PI3KC2B
T6 construct: purchased Invitrogen (US)
Protocol: as §1, with “(US). […]” for “(US).”
as §4

T1 sequence (O00329 whole entry): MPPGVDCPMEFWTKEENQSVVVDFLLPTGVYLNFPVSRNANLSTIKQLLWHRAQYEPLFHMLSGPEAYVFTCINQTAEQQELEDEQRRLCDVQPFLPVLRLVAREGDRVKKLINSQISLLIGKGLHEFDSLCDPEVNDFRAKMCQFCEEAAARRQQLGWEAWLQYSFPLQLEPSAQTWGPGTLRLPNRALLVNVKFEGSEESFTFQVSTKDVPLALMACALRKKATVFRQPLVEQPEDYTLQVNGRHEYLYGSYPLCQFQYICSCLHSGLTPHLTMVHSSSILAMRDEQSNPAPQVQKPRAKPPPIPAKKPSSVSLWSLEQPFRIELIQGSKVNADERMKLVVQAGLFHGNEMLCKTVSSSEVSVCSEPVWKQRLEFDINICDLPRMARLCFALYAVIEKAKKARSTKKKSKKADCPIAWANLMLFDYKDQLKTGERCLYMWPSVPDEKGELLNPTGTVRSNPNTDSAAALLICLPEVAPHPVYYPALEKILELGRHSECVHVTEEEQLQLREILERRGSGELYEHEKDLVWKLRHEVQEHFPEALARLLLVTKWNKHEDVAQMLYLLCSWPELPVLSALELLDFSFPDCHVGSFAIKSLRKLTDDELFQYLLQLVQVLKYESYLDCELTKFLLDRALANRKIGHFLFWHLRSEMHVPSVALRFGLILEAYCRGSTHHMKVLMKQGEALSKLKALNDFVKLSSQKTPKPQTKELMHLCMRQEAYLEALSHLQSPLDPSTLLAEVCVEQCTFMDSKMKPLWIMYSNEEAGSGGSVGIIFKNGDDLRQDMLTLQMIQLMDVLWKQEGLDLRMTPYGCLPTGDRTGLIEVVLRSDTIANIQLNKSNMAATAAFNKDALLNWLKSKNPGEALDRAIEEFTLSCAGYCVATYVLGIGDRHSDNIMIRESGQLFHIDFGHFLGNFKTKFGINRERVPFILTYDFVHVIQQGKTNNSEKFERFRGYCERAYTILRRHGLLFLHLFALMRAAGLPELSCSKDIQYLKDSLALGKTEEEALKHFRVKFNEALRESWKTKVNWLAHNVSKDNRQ
T1 sequence (P27986 whole entry partner): as the sequence (P27986 whole entry partner) above

SMILES	IC50 (PI3Kδ) [µM]	IC50 (PI3Kγ) [µM]	IC50 (PI3Kα) [µM]	IC50 (PIK3C2A) [µM]	IC50 (PI3Kβ) [µM]	effect on the body weight of rats ([1]; 14 days, FIG. 1a)	paw swelling as compared with the vehicle group ([1]; after 14 days of administration, FIG. 1b)	IC50 (PIK3C2B) [µM]
CCC(c1nc2cccc(F)c2c(=O)n1C1CC1)n1nc(-c2ccc(OC)c(F)c2)c2c(N)ncnc21 (stereo not drawn) [Compound 9, 2-(1-(4-amino-3-(3-fluoro-4-methoxyphenyl)-1H-pyrazolo [3,4-d]pyrimidin-1-yl)propyl)-3-cyclopropyl-5-fluoroquinazolin-4(3H)-one]	0.0173	0.685	3.35	> 10	1.16	no significant effect	significantly reduced	9.96
CCC(c1nc2ccc(F)cc2c(=O)n1C1CC1)n1nc(-c2ccc(OC)c(F)c2)c2c(N)ncnc21 (stereo not drawn) [Compound 23, 2-(1-(4-amino-3-(3-fluoro-4-methoxyphenyl)-1H-pyrazolo [3,4-d]pyrimidin-1-yl)propyl)-3-cyclopropyl-6-fluoroquinazolin-4(3H)-one]	0.0095	0.922	6.44		0.999			
COc1ccc(-c2nn(C(C)c3nc4ccccc4c(=O)n3C3CCC3)c3ncnc(N)c23)cc1 (stereo not drawn) [Compound 37, 2-(1-(4-amino-3-(4-methoxyphenyl)-1H-pyrazolo [3,4-d]pyrimidin-1-yl)ethyl)-3-cyclobutylquinazolin-4(3H)-one]	0.001	0.753	4.21		3.28			
COc1ccc(-c2nn(C(C)c3nc4ccccc4c(=O)n3C3CCC3)c3ncnc(N)c23)cc1OC (stereo not drawn) [Compound 38, 2-(1-(4-amino-3-(3,4-dimethoxyphenyl)-1H-pyrazolo [3,4-d]pyrimidin-1-yl)ethyl)-3-cyclobutylquinazolin-4(3H)-one]	0.00959	0.261	2.23		0.581			
COc1ccc(-c2nn(C(C)c3nc4ccc(F)cc4c(=O)n3C3CC3)c3ncnc(N)c23)cc1 (stereo not drawn) [Compound 42, 2-(1-(4-amino-3-(4-methoxyphenyl)-1H-pyrazolo [3,4-d]pyrimidin-1-yl)ethyl)-3-cyclopropyl-6-fluoroquinazolin-4(3H)-one]	0.0083	0.576	3.77		0.69			
